Measured values: US10925858B2, “S-nitrosoglutathione (GSNO) and GSNO reductase inhibitors for use in therapy” (MUSC FOUNDATION FOR RESEARCH DEVELOPMENT, priority 2017, dated 2021)

What was measured:
[1] = tested on: cell adhesion molecules (ICAM-1 and VCAM-1); assay: Real-time PCR, mRNA expression of cell adhesion molecules in diabetic mice; format: in vivo; conditions: cortex and hippocampus, GSNO supplemented diabetic animals
Protocol: Male laca mice weighing between 28-32 g were procured from the Central Animal House, Panjab University, Chandigarh. The animals were acclimatized and were fed with standard pellet diet and water ad libitum. The experimental protocols were approved by the Institutional Ethics Committee and were conducted according to Indian National Science Academy (INSA) guidelines for the use and care of experimental animals. […] Animals were assessed weekly for development of diabetic encephalopathy in terms of memory deficits. […]
PCR Total RNA was extracted from microvessels obtained from brain tissue using TriReagent®. […] The concentration of RNA obtained was determined by 260/280 nm ratio using a Nanodrop™ Spectrophotometer (Nanodrop™ 1000, Thermo Scientific®, Waltham, USA). The integrity and overall quality of RNA was evaluated using agarose gel electrophoresis. […] The data obtained was analyzed by the LightCycler 480 Software, Version 1.5. […] Glyceraldehyde-3-phosphate dehydrogenase was used as the reference gene and the relative gene expression was determined using delta-delta Ct method as described by Pfaffl et al., (2002).

hBMVECs = assay: Assay for F-actin stress fiber development in thrombin treated hBMVECs; format: cell-based, human; conditions: thrombin 0.1 unit/ml 30 min; GSNO 100 μM or SIN-1 100 μM pretreated 2 hr
Protocol: Cell culture: Primary human brain microvascular endothelial cells (hBMVECs) were purchased from Angio-Proteomie (Cat #: cAP-0002, Atlanta, Ga.). The cells were cultured in cell culture flasks or plates precoated with Quick Coating Solution (Angio-Proteomie; Cat #: cAP-01) and maintained in Endothelial Growth Medium (Angio-Proteomie; Cat #: cAP-02) at 37° C. under 5% CO2/95% air. When the cells were almost confluent, the medium was replaced with endothelial basal medium (Angio-Proteomie; Cat #: cAP-03) containing 0.5% fetal bovine serum (FBS; Life Technologies, Grand Island, N.Y.) about 8-12 hours before the experiment. No institutional approval was required for this study. The study was not pre-registered.
Assay for F-actin stress fiber development and endothelial cell contraction: hBMVECs were cultured on fibronectin-coated chamber slides (BD Bioscience). Following drug treatments, the cells were fixed with 4% (wt/vol) paraformaldehyde, permeabilized by the addition of 0.25% Triton X-100, and blocked by 2% bovine serum albumin (BSA) in phosphate buffered saline (PBS). […] The density of fluorescence was analyzed by ImageJ (NIH, Bethesda, Md.).

In the case of `N[C@@H](CCC(=O)N[C@@H](CSN=O)C(=O)NCC(=O)O)C(=O)O` [GSNO, S-nitrosoglutathione], the “mRNA expression of ICAM-1” value [1] is reported as “comparable to control levels” and the “thrombin-induced development of F-actin stress fiber formation” value (hBMVECs) is reported as “inhibited”.
